US20220204953A1, “Mutant of Acid Phosphatase and Application Thereof” (priority 2021, published 2022)
Numbering of substitutions follows the chain as printed.

How the values were obtained:
Assay type in all cases: biochemical
Conditions in all cases: 30° C., pH 5.0, sodium pyrophosphate, 1-1,000 mM
[1] = target: T1, Pseudomonas aeruginosa acid phosphatase PaAPase, wild type (WT), SEQ ID NO: 1 (Pseudomonas aeruginosa, UniProt A0A0D6FFE3); test: Determination of kinetic parameters (phosphorylation of L-ascorbic acid to L-ascorbate-2-phosphate), wild type
T1 construct: 217 aa form
Method: (§1) The activities of PaAPase and mutants thereof were determined with high-performance liquid chromatography. 500 μL of a substrate solution (500 mM L-ascorbic acid and 500 mM sodium pyrophosphate) (pH 5.0) and 5 μL of the enzyme liquid react at 30° C. for 30 min, and 95 μL of 42% phosphoric acid was added to terminate the reaction, where an activity unit was defined as the amount of enzyme required for producing 1 μmol of L-ascorbate-2-phosphate within 1 min (Table 3).
(§2) The kinetic parameters, including Vmax, Km and kcat, were calculated by measuring the generation rates of initial products of L-ascorbic acid and L-ascorbate-2-phosphate (1-1,000 mM) at different concentrations at 30° C. and under other conditions consistent with those of the determination of specific enzyme activity.

[2] = target: T2, Pseudomonas aeruginosa acid phosphatase PaAPase variant PaAPaseMu2 (W58P/D135R), SEQ ID NO: 21 (Pseudomonas aeruginosa, UniProt A0A0D6FFE3, D159R/W82P); test: Determination of kinetic parameters (phosphorylation of L-ascorbic acid to L-ascorbate-2-phosphate), Mu2
T2 construct: 217 aa form
T2 sequence (A0A0D6FFE3 25-241 W82P/D159R): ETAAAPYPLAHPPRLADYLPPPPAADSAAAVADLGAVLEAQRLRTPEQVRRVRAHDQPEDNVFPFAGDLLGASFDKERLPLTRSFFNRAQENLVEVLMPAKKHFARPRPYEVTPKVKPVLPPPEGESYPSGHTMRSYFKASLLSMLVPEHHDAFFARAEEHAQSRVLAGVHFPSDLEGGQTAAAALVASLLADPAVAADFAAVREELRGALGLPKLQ
Method: as §1, §2

[3] = target: T3, Pseudomonas aeruginosa acid phosphatase PaAPase variant PaAPaseMu1 (D135R), SEQ ID NO: 19 (Pseudomonas aeruginosa, UniProt A0A0D6FFE3, D159R); test: Determination of kinetic parameters (phosphorylation of L-ascorbic acid to L-ascorbate-2-phosphate), Mu1
T3 construct: 217 aa form
T3 sequence (A0A0D6FFE3 25-241 D159R): T2 sequence (A0A0D6FFE3 25-241 W82P/D159R) with P58W
Method: as §1, §2

[4] = target: T4, Pseudomonas aeruginosa acid phosphatase PaAPase variant PaAPaseMu3 (Q57H/W58P/D135R), SEQ ID NO: 22 (Pseudomonas aeruginosa, UniProt A0A0D6FFE3, D159R/Q81H/W82P)
T4 construct: 217 aa form
T4 sequence (A0A0D6FFE3 25-241 Q81H/W82P/D159R): T2 sequence (A0A0D6FFE3 25-241 W82P/D159R) with Q57H

T1 sequence (A0A0D6FFE3 entry or part of it): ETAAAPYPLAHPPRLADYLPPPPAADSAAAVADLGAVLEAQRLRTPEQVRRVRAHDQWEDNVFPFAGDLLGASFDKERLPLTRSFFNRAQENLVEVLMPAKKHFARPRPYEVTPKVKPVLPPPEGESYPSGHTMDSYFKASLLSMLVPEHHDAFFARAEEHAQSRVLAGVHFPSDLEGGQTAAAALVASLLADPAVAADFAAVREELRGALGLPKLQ

Question: How did the kcat [1] turn out when `O=C1O[C@H]([C@@H](O)CO)C(O)=C1O` [L-ascorbic acid] was run?
Answer: Its kcat is 16.3 s⁻¹.

Question: What about the kcat/Km [1] of the same molecule?
Answer: Its kcat/Km is 56.3 M⁻¹ s⁻¹.

Question: And the kcat [2]?
Answer: Its kcat is 19.2 s⁻¹.

Question: And the kcat/Km [2]?
Answer: Its kcat/Km is 86.2 M⁻¹ s⁻¹.

Question: What about the kcat [3] of the same molecule?
Answer: The kcat was 18.7 s⁻¹.

Question: What about the kcat/Km [3] of the same molecule?
Answer: Its kcat/Km is 76.3 M⁻¹ s⁻¹.

Question: What about the kcat [4] of the same molecule?
Answer: The kcat was 20.1 s⁻¹.

Question: And the kcat/Km [4]?
Answer: Its kcat/Km is 95.3 M⁻¹ s⁻¹.
